Measured values as given in publication PMC10189658 (Journal of inorganic biochemistry, 2023).

Biological target: T1, human heme oxygenase-1 (hHO-1) (Homo sapiens, UniProt P09601)
T1 sequence (P09601 1-288): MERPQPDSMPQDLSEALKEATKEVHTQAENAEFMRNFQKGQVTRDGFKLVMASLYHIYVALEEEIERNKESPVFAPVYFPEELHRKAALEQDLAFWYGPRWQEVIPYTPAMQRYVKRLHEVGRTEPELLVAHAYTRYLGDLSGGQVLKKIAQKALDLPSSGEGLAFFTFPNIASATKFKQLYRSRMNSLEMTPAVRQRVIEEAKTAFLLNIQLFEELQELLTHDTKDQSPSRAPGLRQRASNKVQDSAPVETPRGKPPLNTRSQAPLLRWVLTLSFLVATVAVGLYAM
Experiment: UV-Vis Soret equilibrium binding titration

Kd: 4.46 ± 0.8 µM
Structure (SMILES): Brc1ccc(CCC2(Cn3ccnc3)OCCO2)cc1 [OB-24]
